Measured values taken from ChEMBL document CHEMBL5030557, “Tandem Repeat of a Short Human Chemerin-Derived Peptide and Its Nontoxic d-Lysine-Containing Enantiomer Display Broad-Spectrum Antimicrobial and Antitubercular Activities” (J Med Chem, 2021).
In brackets after ≈: the same amount, converted by molar mass. Activity calls are given as the source filed them. The rule behind the calls is not given here.

Assays:
Pseudomonas aeruginosa [1] = experiment: Antimicrobial activity against Pseudomonas aeruginosa ATCC BAA-427 assessed as inhibition of bacterial growth by broth dilution method; assay type: functional
Staphylococcus aureus [2] = experiment: Antimicrobial activity against multidrug-resistant Staphylococcus aureus ATCC BAA-44 assessed as inhibition of bacterial growth by broth dilution method; assay type: functional
Staphylococcus aureus [3] = experiment: Antimicrobial activity against Staphylococcus aureus ATCC 25923 assessed as inhibition of bacterial growth by broth dilution method; assay type: functional
Klebsiella pneumoniae = experiment: Antimicrobial activity against Klebsiella pneumoniae ATCC 27736 assessed as inhibition of bacterial growth by broth dilution method; assay type: functional
Pseudomonas aeruginosa [4] = experiment: Antibacterial activity against Pseudomonas aeruginosa BAA 427 assessed as resistance development by measuring fold change in MIC after 30 passages with serially diluted peptides; assay type: functional
Escherichia coli [5] = experiment: Bactericidal activity against Escherichia coli ATCC 25922 assessed as bacterial killing at 5 times MIC measured after 60 min; assay type: functional, organism-based
[6] = Hemolytic activity in human RBC measured after 40 mins; assay type: ADME, tissue-based, Erythrocyte; details: red blood cells (RBC)
[7] = test system: Mycolicibacterium smegmatis; experiment: Anti-mycobacterial activity against Mycobacterium smegmatis infected in human THP-1 cells assessed as reduction in CFU at 40.13 uM after 24 hrs; assay type: functional
Cell membrane [8] = experiment: Induction of membrane damage in Escherichia coli assessed as disruption of membrane integrity at 10 uM incubated for 30 min by propidium iodide staining based assay
Red blood cell = experiment: (§1) Disruption of membrane integrity in human RBC cells assessed as membrane damage at 150 uM incubated for 15 min by Alexa fluor-annexin V staining based assay (reference value: 0%); assay type: functional
[9] = as §1; assay type: functional, Red blood cell; details: 0.25 h
[10] = Acute toxicity in BALB/c mouse assessed as survival at 30 mg/kg administered intravenously measured after 7 days; assay type: organism-based; details: in vivo, iv, 168 h, time 7 day
[11] = Retention time of the compound analysed by RP-HPLC analysis; assay type: physicochemical
[12] = test system: Mycolicibacterium smegmatis; experiment: Anti-mycobacterial activity against Mycobacterium smegmatis infected in human THP-1 cells assessed as reduction in CFU at 24.19 uM after 24 hrs; assay type: functional
[13] = Permeability of the compound in PC/PG lipid vesicles by spectrofluorometry; assay type: ADME
Escherichia coli [14] = experiment: Antibacterial activity against Escherichia coli ATCC 25922 in presence of 4.5 mM KCl measured after 1 hr; assay type: functional
[15] = test system: Mycolicibacterium smegmatis; experiment: Anti-mycobacterial activity against Mycobacterium smegmatis assessed as growth inhibition at 16.13 uM relative to control; assay type: functional
Escherichia coli [16] = experiment: Antibacterial activity against Escherichia coli ATCC 25922 in presence of 150 mM NaCl measured after 1 hr; assay type: functional
[17] = Acute toxicity in BALB/c mouse assessed as survival at 20 mg/kg administered intravenously measured after 7 days; assay type: organism-based; details: in vivo, iv, 168 h, time 7 day
Bacillus subtilis = experiment: Antimicrobial activity against Bacillus subtilis ATCC 6633 assessed as inhibition of bacterial growth by broth dilution method; assay type: functional
Escherichia coli [18] = experiment: Antimicrobial activity against Escherichia coli ATCC 25922 assessed as inhibition of bacterial growth by broth dilution method; assay type: functional
Staphylococcus aureus [19] = experiment: Antimicrobial activity against methicilin- resistant Staphylococcus aureus ATCC 33591 assessed as inhibition of bacterial growth by broth dilution method; assay type: functional
Cell membrane [20] = experiment: Disruption of plasma membrane in Staphylococcus aureus ATCC 25923 at 10 uM by SYTOX-green uptake assay; assay type: cell membranes; details: TDE = time-dependent effect
[21] = Stability of the compound in human serum assessed as intact compound remaining at 2 mg/ml measured after 60 mins by […] analysis; assay type: ADME, cell-free; details: read-out: Stability
Escherichia coli [22] = experiment: Antibacterial activity against Escherichia coli ATCC 25922 in presence of temperature ranging from 4 to 90 degC measured after 1 hr; assay type: functional
[23] = test system: Mycobacterium tuberculosis; experiment: Anti-mycobacterial activity against Mycobacterium tuberculosis H37Ra assessed as growth inhibition at 16.13 uM relative to control; assay type: functional
Escherichia coli [24] = experiment: Antibacterial activity against Escherichia coli ATCC 25922 in presence of 10 percent fresh human serum measured after 1 hr; assay type: functional
Lipid bilayer = experiment: Induction of membrane depolarization in mammalian mimetic PC/Chol vesicles assessed as membrane permeabilization
[25] = test system: Mycolicibacterium smegmatis; experiment: Anti-mycobacterial activity against Mycobacterium smegmatis assessed as reduction in CFU at 3 times MIC after 12 hrs; assay type: functional, organism-based
THP-1 = experiment: Cytotoxicity against human monocyte THP-1 cell line assessed as cell viability measured for 24 hrs using ELISA plate reader; assay type: cell-based; details: thp-1, 24 h
[26] = test system: Mycolicibacterium smegmatis; experiment: Anti-mycobacterial activity against Mycobacterium smegmatis assessed as reduction in CFU at 3 times MIC after 24 hrs; assay type: functional, organism-based
Pseudomonas aeruginosa [27] = experiment: Antibacterial activity against Pseudomonas aeruginosa infected in Balb/c mouse stomach assessed as animal survival at 10 mg/kg, ip after 7 days; assay type: functional; details: 168 h, time 7 day
Pseudomonas aeruginosa [28] = experiment: Anti-infective activity in Pseudomonas aeruginosa infected BALB/c mouse liver assessed as reduction in bacterial growth at 10 mg/kg, ip after 18 hrs; assay type: functional, organism-based
Pseudomonas aeruginosa [29] = experiment: Anti-infective activity in Pseudomonas aeruginosa infected BALB/c mouse kidney assessed as reduction in bacterial growth at 10 mg/kg, ip after 12 hrs; assay type: functional, organism-based
[30] = Acute toxicity in BALB/c mouse assessed as change in body weight at 20 mg/kg administered intravenously measured after 7 days; assay type: organism-based; details: in vivo, iv, 168 h, time 7 day
Pseudomonas aeruginosa [31] = experiment: Antibacterial activity against Pseudomonas aeruginosa infected in Balb/c mouse stomach assessed as animal survival at 5 mg/kg, ip after 7 days; assay type: functional; details: 168 h, time 7 day
Pseudomonas aeruginosa [32] = experiment: Anti-infective activity in Pseudomonas aeruginosa infected BALB/c mouse spleen assessed as reduction in bacterial growth at 10 mg/kg, ip after 18 hrs; assay type: functional, organism-based
Cell membrane [33] = experiment: Inner membrane permeability of the compound in Escherichia coli ATCC 25922 by ONPG assay; assay type: ADME, subcellular
Pseudomonas aeruginosa [34] = experiment: Anti-infective activity in Pseudomonas aeruginosa infected BALB/c mouse spleen assessed as reduction in bacterial growth at 10 mg/kg, ip after 12 hrs; assay type: functional, organism-based
Pseudomonas aeruginosa [35] = experiment: Anti-infective activity in Pseudomonas aeruginosa infected BALB/c mouse liver assessed as reduction in bacterial growth at 10 mg/kg, ip after 12 hrs; assay type: functional, organism-based
Pseudomonas aeruginosa [36] = experiment: Anti-infective activity in Pseudomonas aeruginosa infected BALB/c mouse kidney assessed as reduction in bacterial growth at 10 mg/kg, ip after 18 hrs; assay type: functional, organism-based
[37] = Hemolytic activity in human RBC at 150 uM measured after 40 min by hemolysis assay relative to control; assay type: ADME, tissue-based, Erythrocyte; details: red blood cells (RBC), read-out: Activity

SMILES	MIC (Pseudomonas aeruginosa [1]) [µM]	MIC (Staphylococcus aureus [2]) [µM]	MIC (Staphylococcus aureus [3]) [µM]	MIC (Klebsiella pneumoniae) [µM]	fold change (FC) (Pseudomonas aeruginosa [4])	Activity (Escherichia coli [5])	HC50 at 40 min [6] [µM]	inhibition at 40.13 µM [7] [%]	Activity (Cell membrane [8])	Activity [9] [%]	Retention_time [11] [min]	inhibition at 24.19 µM [12] [%]	Activity [13]	MIC (Escherichia coli [14]) [µM]	MIC (Escherichia coli [16]) [µM]	MIC (Bacillus subtilis) [µM]	MIC (Escherichia coli [18]) [µM]	MIC (Staphylococcus aureus [19]) [µM]	MIC (Escherichia coli [22]) [µM]	MIC (Escherichia coli [24]) [µM]	other results
CCn1cc(C(=O)O)c(=O)c2cc(F)c(N3CCNCC3)cc21 [NORFLOXACIN]	1.22 (≈ 0.39 µg/mL)	2.44 (≈ 0.779 µg/mL)	1.22 (≈ 0.39 µg/mL)	0.15 (≈ 0.0479 µg/mL)																	
O=C(O)c1cn(C2CC2)c2cc(N3CCNCC3)c(F)cc2c1=O [CIPROFLOXACIN]					64																
CC(C)C[C@H](NC(=O)[C@H](CCCNC(=N)N)NC(=O)CNC(=O)[C@H](CC(C)C)NC(=O)[C@@H](NC(=O)[C@H](CCCCN)NC(=O)[C@@H](NC(=O)[C@H](CC(C)C)NC(=O)[C@H](CCCNC(=N)N)NC(=O)CNC(=O)[C@H](CC(C)C)NC(=O)[C@@H](NC(=O)[C@@H](N)CCCCN)C(C)C)C(C)C)C(C)C)C(=O)N[C@H](C(N)=O)C(C)C	4 (≈ 6.2 µg/mL)	2 (≈ 3.1 µg/mL)	2 (≈ 3.1 µg/mL)	4 (≈ 6.2 µg/mL)	8	Active	429	40	Active	96.5	16	20	Active	2	2	2 (≈ 3.1 µg/mL)	1 (≈ 1.55 µg/mL)	1 (≈ 1.55 µg/mL)	2	2	Activity (Red blood cell): Active; Activity [10]: Non-Toxic; inhibition at 16.13 µM [15]: 80%; Activity [17]: Non-Toxic; Activity (Cell membrane [20]): Tde; remaining at 1 h, 2 mg/ml [21]: 51%; inhibition at 16.13 µM [23]: 80%; Activity (Lipid bilayer): inactive
CN(C)[C@@H]1C(O)=C(C(N)=O)C(=O)[C@@]2(O)C(O)=C3C(=O)c4c(O)cccc4C(C)(O)[C@H]3C[C@@H]12 (some centres undefined)					16																
CC(C)C[C@H](NC(=O)[C@H](CCCNC(=N)N)NC(=O)CNC(=O)[C@H](CC(C)C)NC(=O)[C@@H](NC(=O)[C@@H](CCCCN)NC(=O)[C@@H](NC(=O)[C@H](CC(C)C)NC(=O)[C@H](CCCNC(=N)N)NC(=O)CNC(=O)[C@H](CC(C)C)NC(=O)[C@@H](NC(=O)[C@@H](N)CCCCN)C(C)C)C(C)C)C(C)C)C(=O)N[C@H](C(N)=O)C(C)C	4 (≈ 6.2 µg/mL)	2 (≈ 3.1 µg/mL)	1 (≈ 1.55 µg/mL)	4 (≈ 6.2 µg/mL)	2	Active	> 2000	80	Active	2.1	14.6	40	Active	8	4	2 (≈ 3.1 µg/mL)	1 (≈ 1.55 µg/mL)	2 (≈ 3.1 µg/mL)	2	2	Activity [25]: Active; Activity (THP-1): Non-Toxic; Activity [26]: Active; survival at 10 mg/kg (Pseudomonas aeruginosa [27]): 80%; Activity (Pseudomonas aeruginosa [28]): Active; Activity (Pseudomonas aeruginosa [29]): Active; Activity [30]: Non-Toxic; survival at 5 mg/kg (Pseudomonas aeruginosa [31]): 40%; Activity (Pseudomonas aeruginosa [32]): Active; inhibition at 16.13 µM [15]: 95%; Activity [17]: Toxic; Activity (Cell membrane [33]): Active; Activity (Pseudomonas aeruginosa [34]): Active; Activity (Cell membrane [20]): Tde; Activity (Pseudomonas aeruginosa [35]): Active; remaining at 1 h, 2 mg/ml [21]: 88%; Activity (Pseudomonas aeruginosa [36]): Active; inhibition at 16.13 µM [23]: 95%; Activity (Lipid bilayer): inactive; hemolysis at 40 min, 150 µM [37]: 0%
CC(C)C[C@H](NC(=O)[C@H](CCCNC(=N)N)NC(=O)CNC(=O)[C@H](CC(C)C)NC(=O)[C@@H](NC(=O)[C@H](CCCCN)NC(=O)[C@@H](NC(=O)[C@H](CC(C)C)NC(=O)[C@H](CCCNC(=N)N)NC(=O)CNC(=O)[C@H](CC(C)C)NC(=O)[C@@H](NC(=O)[C@H](N)CCCCN)C(C)C)C(C)C)C(C)C)C(=O)N[C@H](C(N)=O)C(C)C	4 (≈ 6.2 µg/mL)	2 (≈ 3.1 µg/mL)	2 (≈ 3.1 µg/mL)	4 (≈ 6.2 µg/mL)			165		Active	99.1	18.8			4	2	2 (≈ 3.1 µg/mL)	0.5 (≈ 0.775 µg/mL)	1 (≈ 1.55 µg/mL)	2	1	
